Key:
Tau aggregates = Tau aggregates (Homo sapiens, UniProt P10636); test: Thioflavin S fluorometry, dissolution/disruption/inhibition of Tau aggregates; assay type: biochemical
Protocol: In contrast to quantitation of Aβ fibrils, where ThioT is used, it was shown for tau aggregates that ThioS is more reproducible and independent of solvent characteristics. […] (Friedhoff, P et al. (1998) Biochem 10223-10230)
The Thio S assay involves the dilution of 500 μM ThioS stock 1:1 with PBS. Pipette 25 μl of this into the wells of a 96-well assay plate. Add 50 μl samples and 50 μl PBS and mix well. Read plates immediately on a fluorometer with the excitation set at 444 nm and emission set at 485 nm. […] Log transformed values are analyzed using “Nonlinear regression (curve fit) log(inhibitor) vs. normalized response—Variable slope” analysis.

aggregated Tau-441 = molecular target: T1, aggregated Tau-441 (Homo sapiens, UniProt P10636); test: Thioflavin T fluorometry, dissolution/disruption/inhibition of preformed Tau aggregates; assay type: biochemical; conditions: 3 days at 37° C.
T1 construct: purchased rPeptide
Protocol: Thioflavin T binds specifically to aggregated Tau or Tau tangles, and this binding produces a fluorescence enhancement at 485 nm that is directly proportional to the amount of aggregated Tau. The higher the fluorescence, the greater the amount of aggregated Tau.
In this study, Tau-441 or TauRD was pre-fibrillized or aggregated by combining with Heparin (SIGMA) at 1:1 wt/wt, then incubation at 37° C. and shaking at 1400 rpm for 8 days. […] Following 3-days of co-incubation, 50 μl of each incubation mixture was transferred into a 96-well microtiter plate containing 150 μl of distilled water and 50 μl of a Thioflavin T solution (i.e. […] Thioflavin T in 250 mM phosphate buffer, pH 6.8). The fluorescence was read at 485 nm (444 nm excitation wavelength) using an ELISA plate fluorometer after subtraction with buffer alone or compound alone, as blank.

[1] = Tau:test compound wt/wt ratio 1:0.001
[2] = Tau:test compound wt/wt ratio 1:0.01
[3] = Tau:test compound wt/wt ratio 1:0.1
[4] = Tau:test compound wt/wt ratio 1:1

Sequence of Tau aggregates (P10636 1-441 isoform P10636-8): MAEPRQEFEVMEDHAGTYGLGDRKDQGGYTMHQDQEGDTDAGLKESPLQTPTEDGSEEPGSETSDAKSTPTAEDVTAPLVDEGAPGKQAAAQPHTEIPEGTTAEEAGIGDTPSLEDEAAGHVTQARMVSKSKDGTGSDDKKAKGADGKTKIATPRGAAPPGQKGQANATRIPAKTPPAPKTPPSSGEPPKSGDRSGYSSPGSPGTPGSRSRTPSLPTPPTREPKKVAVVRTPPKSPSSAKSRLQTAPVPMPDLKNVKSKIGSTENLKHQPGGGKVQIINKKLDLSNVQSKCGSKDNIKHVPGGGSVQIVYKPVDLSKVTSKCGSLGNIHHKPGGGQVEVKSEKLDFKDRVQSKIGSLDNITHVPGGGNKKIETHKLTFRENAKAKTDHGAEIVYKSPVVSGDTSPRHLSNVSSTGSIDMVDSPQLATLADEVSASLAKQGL
T1 sequence (P10636 1-441 isoform P10636-8): as above

IC50 (Tau aggregates) [µM] | % dissolution/disruption/inhibition Tau (result ± S.D.) (aggregated Tau-441; [1]) [%] | % dissolution/disruption/inhibition Tau (result ± S.D.) (aggregated Tau-441; [2]) [%] | % dissolution/disruption/inhibition Tau (result ± S.D.) (aggregated Tau-441; [3]) [%] | % dissolution/disruption/inhibition Tau (result ± S.D.) (aggregated Tau-441; [4]) [%] | Structure (SMILES)
 | 11.8 ± 8.06 | 16.5 ± 2.49 | 34.7 ± 1.69 | 77.8 ± 1.13 | O=C(Nc1ccc(O)c(O)c1)C(=O)Nc1ccc(O)c(O)c1 [Compound 63, oxalic acid bis(3,4-dihydroxyanilide)]
3.95 | 17.4 ± 4.88 | 54.1 ± 2.62 | 91.2 ± 0.56 | 94.1 ± 2.99 | O=C(Nc1ccc(O)c(O)c1)Nc1ccc(O)c(O)c1 [Compound 76, 1,3-Bis(3,4-dihydroxyphenyl)urea]

Continued, compound first:

Structure (SMILES) | IC50 (Tau aggregates) [µM] | % dissolution/disruption/inhibition Tau (result ± S.D.) (aggregated Tau-441; [1]) [%] | % dissolution/disruption/inhibition Tau (result ± S.D.) (aggregated Tau-441; [2]) [%] | % dissolution/disruption/inhibition Tau (result ± S.D.) (aggregated Tau-441; [3]) [%] | % dissolution/disruption/inhibition Tau (result ± S.D.) (aggregated Tau-441; [4]) [%]
Oc1ccc(Cc2ccc(O)c(O)c2)cc1O [Compound 3, 3,4,3′,4′-Tetrahydroxydiphenylmethane] | 32.4 | 17.0 ± 2.49 | 54.1 ± 2.62 | 89.2 ± 1.96 | 91.2 ± 2.59
Oc1ccc(CCc2ccc(O)c(O)c2)cc1O [Compound 4, 1,2-bis(3,4-dihydroxyphenyl)ethane] | 10.8 | 19.3 ± 0.00 | 68.0 ± 1.71 | 92.8 ± 2.59 | 93.5 ± 4.42
O=C(NCCc1ccc(O)c(O)c1)Nc1ccc(O)c(O)c1 [Compound 78, 1-(3,4-Dihydroxyphenyl)-3-(3,4-dihydroxyphenethyl)urea] | 5.26 |  |  |  | 

Reference: patent US20150038591A1, “Compounds, compositions and methods for the treatment of tauopathies” (PROTEOTECH INC., priority 2002, published 2015)
